Data as given in US12692247B2, “Phenyl- and pyridopyrazole derivatives as inhibitors of DDR1” (Redx Pharma Limited, priority 2021, dated 2026).

Tests used:
Recombinant human DDR2 = target: T1, Recombinant human DDR2 (Homo sapiens, UniProt Q16832); experiment: LanthaScreen Eu Kinase Binding Assay, DDR2; details: recombinant human DDR2 (1.75 nM; aa427-855, GST tag), Kinase Tracer 178 10 nM, time-resolved fluorescence, at least two independent replicates; read-out: DDR2 pIC50 (converted)
T1 construct: DDR2 (1.75 nM; aa427-855 containing a GST tag)
T1 sequence (Q16832 427-855): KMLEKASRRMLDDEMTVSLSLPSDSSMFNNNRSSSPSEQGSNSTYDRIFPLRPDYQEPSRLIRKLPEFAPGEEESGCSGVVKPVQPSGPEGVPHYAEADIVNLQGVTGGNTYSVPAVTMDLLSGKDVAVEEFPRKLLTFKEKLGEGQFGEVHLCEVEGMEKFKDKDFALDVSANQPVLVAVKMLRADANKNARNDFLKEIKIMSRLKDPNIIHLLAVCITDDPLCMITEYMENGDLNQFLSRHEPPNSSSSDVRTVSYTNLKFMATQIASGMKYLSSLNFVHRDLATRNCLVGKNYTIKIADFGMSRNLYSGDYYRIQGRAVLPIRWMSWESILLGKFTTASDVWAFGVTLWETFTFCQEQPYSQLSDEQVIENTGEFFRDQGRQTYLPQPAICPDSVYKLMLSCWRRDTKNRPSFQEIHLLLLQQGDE
How it was run: (§1)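 GST-tagged kinase domains (DDR1 aa440-876 at 2.5 nM; DDR2 aa427-855 at 1.75 nM) were preincubated 30 min at room temperature with compound in HEPES pH 7.3 buffer. Then 1 nM Eu-anti-GST plus Tracer 178 (5 nM DDR1, 10 nM DDR2) were added; after 60 min, TR-FRET gave IC50 by four-parameter fit, ≥2 replicates.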

Recombinant human DDR1 = target: T2, Recombinant human DDR1 (Homo sapiens, UniProt Q08345); experiment: LanthaScreen Eu Kinase Binding Assay, DDR1; details: recombinant human DDR1 (2.5 nM; aa440-876, GST tag), Kinase Tracer 178 5 nM, time-resolved fluorescence, at least two independent replicates; read-out: DDR1 pIC50 (converted)
T2 construct: Recombinant human DDR1 (2.5 nM; aa440-876 containing a GST tag)
How it was run: as §1

T2 sequence (Q08345 440-876 isoform Q08345-2): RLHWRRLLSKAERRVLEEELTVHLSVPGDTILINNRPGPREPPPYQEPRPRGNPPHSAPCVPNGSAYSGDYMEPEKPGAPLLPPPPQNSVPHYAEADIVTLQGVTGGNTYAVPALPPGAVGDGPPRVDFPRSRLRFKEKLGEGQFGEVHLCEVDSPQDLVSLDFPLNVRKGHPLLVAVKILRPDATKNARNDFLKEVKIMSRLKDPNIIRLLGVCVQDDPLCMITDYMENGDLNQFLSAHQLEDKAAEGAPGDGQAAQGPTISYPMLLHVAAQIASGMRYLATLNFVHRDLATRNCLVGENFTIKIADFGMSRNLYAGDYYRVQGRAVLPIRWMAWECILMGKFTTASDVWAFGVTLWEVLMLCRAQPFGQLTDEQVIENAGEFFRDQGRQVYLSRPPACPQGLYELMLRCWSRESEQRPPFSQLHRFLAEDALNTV

| IC50 (Recombinant human DDR2) | IC50 (Recombinant human DDR1) | Structure (SMILES) |
| --- | --- | --- |
| 10 to 100 nM | < 10 nM | CN(C)Cc1cc(NC(=O)Cn2ccc3cccc(Nc4ccc5c(cnn5C)c4)c3c2=O)cc(C(F)(F)F)c1 [Example 154, N-[3-[(dimethylamino)methyl]-5-(trifluoromethyl)phenyl]-2-[8-[(1-methylindazol-5-yl)amino]-1-oxo-2-isoquinolyl]acetamide] |
| 10 to 100 nM | 10 to 100 nM | Cc1n[nH]c2cc(Nc3cccc4ccn(CC(=O)Nc5cnoc5)c(=O)c34)ccc12 [Example 158, N-isoxazol-4-yl-2-[8-[(3-methyl-1H-indazol-6-yl)amino]-1-oxo-2-isoquinolyl]acetamide] |
| 100 to 1000 nM | 10 to 100 nM | Cc1n[nH]c2cc(Nc3cccc4ccn(CC(=O)Nc5cccc(C(F)(F)F)c5)c(=O)c34)ccc12 [Example 159, 2-[8-[(3-methyl-1H-indazol-6-yl)amino]-1-oxo-2-isoquinolyl]-N-[3-(trifluoromethyl)phenyl]acetamide] |
